Laboratory results taken from patent US20240226109A1, “CO-THERAPY WITH VECTOR AND NICOTINIC AGONIST” (OYSTER POINT PHARMA, INC., priority 2021, published 2024).

Experiments:
[1] = target: T1, nAChR subtype alpha3beta2 (Homo sapiens, UniProt P17787+P32297); assay: nAChR agonist response (evoked current compared with ACh response) in cells expressing a nAChR subtype; type: cell-based; settings: response relative to ACh response
T1 construct: expressed in transfected cells
Excerpt: (§1) In general, a nAChR agonist is a full agonist if it evokes a response upon binding to a given receptor that is equal or greater to that of ACh.
(§2) nAChR agonist response, from which receptor activation can be determined can, for example, be generated using an appropriate cell-based assay. Cells designed to express a particular nAChR receptor subtype and generate an electrical current response when bound to and activated by a nAChR agonist can be used to characterize the agonist profile of a compound and the amount of receptor activation thus determined. An example of a generic protocol is described below.
(§3) Cells that express a particular human nAChR subtype are first exposed to ACh. ACh binds and activates the receptor, thereby evoking a current. The concentration of the ACh is chosen to elicit the maximum response of the receptor (e.g., 1280 micromolar ACh). This current is recorded as the ACh response and serves as the 100% nAChR agonist response and to which responses to other nAChR agonists are compared. […] The current evoked by exposure to the nAChR agonist is measured and recorded for each nAChR concentration. […] The nAChR agonist response is then calculated as a percentage of the ACh response.
(§4) A nAChR agonist evoking a response equal to or greater than the maximum ACh response determined at the same receptor type is a full agonist. […]

[2] = target: T2, nAChR subtype alpha3beta4 (Homo sapiens, UniProt P30926+P32297); assay: as above; type: cell-based; settings: response relative to ACh response
T2 construct: expressed in transfected cells
Excerpt: as §1, §2
(§5) Cells that express a particular human nAChR subtype are first exposed to ACh. ACh binds and activates the receptor, thereby evoking a current. […] This current is recorded as the ACh response and serves as the 100% nAChR agonist response and to which responses to other nAChR agonists are compared. After washing, the cells are exposed to a nAChR agonist at various concentrations (e.g., 0.1, 0.3, 1, 3, 10, 30, 100, and 300 micromolar). The current evoked by exposure to the nAChR agonist is measured and recorded for each nAChR concentration. This nAChR agonist response data is then normalized to unity versus the maximal ACh evoked current and plotted as a function of the logarithm of the nAChR agonist concentration. The nAChR agonist response is then calculated as a percentage of the ACh response.
(§6) A nAChR agonist evoking a response equal to or greater than the maximum ACh response determined at the same receptor type is a full agonist. In some cases, a nAChR agonist evoking a response of less than 100% of the ACh response may still be characterized a full agonist, taking into account experimental variability. […] In some cases, a nAChR agonist evoking 90% of the ACh response or greater is considered a full agonist. […] In some cases, a nAChR agonist evoking 80% of the ACh response or greater is considered a full agonist.

[3] = target: T3, nAChR subtype alpha7 (Homo sapiens, UniProt P36544); assay: as above; type: cell-based; settings: for agonist characterization at nAChR subtype alpha7: response relative to ACh response
T3 construct: expressed in transfected cells
Excerpt: as §1, §2, §5, §6

[4] = tested on: T4, nAChR subtype alpha3alpha5beta4 (Homo sapiens); assay: as above; type: cell-based; settings: response relative to ACh response
T4 construct: expressed in transfected cells
Excerpt: as §1, §2, §5, §6

[5] = target: T5, nAChR subtype alpha4beta2 (Homo sapiens, UniProt P17787+P43681); assay: as above; type: cell-based; settings: response relative to ACh response
T5 construct: expressed in transfected cells
Excerpt: as §1, §2, §5, §6

[6] = target: T6, nAChR subtype alpha4alpha6beta2 (Homo sapiens, UniProt P17787+P43681+Q15825); assay: as above; type: cell-based; settings: response relative to ACh response
T6 construct: expressed in transfected cells
Excerpt: as §1, §2, §5, §6

[7] = target: T7, nAChR subtype alpha6beta2 (Homo sapiens, UniProt P17787+Q15825); assay: as above; type: cell-based; settings: response relative to ACh response
T7 construct: expressed in transfected cells
Excerpt: as §1, §2, §3, §4

[8] = tested on: tear film; assay: hNGF concentration in tear film collected on Schirmer test strips (ELISA), with and without intranasal varenicline; type: in vivo, Dutch-Belted rabbits; settings: rabbits given rAAV9.hNGF intralacrimally; intranasal varenicline on days 21, 28 and 41
Method: FIG. 8 is a plot showing the concentration of hNGF in tear film in animals treated with AAV.hNGF and varenicline. Protein concentration was measured using Schirmer tear strips to collect tear film from Dutch-belted rabbits at the indicated number of days following intralacrimal administration of AAV2.hNGF, AAV5.hNGF, or AAV9.hNGF. At days 21, 28, and 41, tear film was collected following the intranasal administration of the tear inducing agent, varenicline. Control animals had no injection of AAV.
A Schirmer tear test was performed to collect eye moisture from the animals on Days 7, 14, 21, 28, 41, and 42. Test strips were placed inside the lower eyelid for approximately 1 minute. The paper was removed and placed into separate tubes and frozen at −80° C. for subsequent analysis. Schirmer test strips were collected following intranasal administration of varenicline on Days 21, 28, and 41. Test strips were placed inside the lower eyelid for approximately 1 minute. The paper was removed and placed into separate tubes and frozen at −80° ° C. for subsequent analysis. Protein content absorbed onto Schirmer's test strips was analyzed for concentration of hNGF by ELISA assay.
A Schirmer tear test was performed to collect eye moisture from the animals on Days 7, 14, 21, 28, 41, and 42. […] Protein content absorbed onto Schirmer's test strips was analyzed for concentration of hNGF by ELISA assay.

[9] = tested on: tear film; assay: Mesoscale discovery (MSD) assay of hNGFβ in porcine tears after lacrimal gland transduction; type: in vivo, pigs (Sus scrofa domesticus); settings: pigs given AAV9-hNGFβ; Day 28 (0.03 mg varenicline solution each nostril) vs Day 21 and Day 35 (no nasal spray); data not shown
[10] = tested on: subjects with dry eye; settings: 28-day course of 0.1% ophthalmic formulation, Phase II; cited from earlier work

T3 sequence (P36544 23-502): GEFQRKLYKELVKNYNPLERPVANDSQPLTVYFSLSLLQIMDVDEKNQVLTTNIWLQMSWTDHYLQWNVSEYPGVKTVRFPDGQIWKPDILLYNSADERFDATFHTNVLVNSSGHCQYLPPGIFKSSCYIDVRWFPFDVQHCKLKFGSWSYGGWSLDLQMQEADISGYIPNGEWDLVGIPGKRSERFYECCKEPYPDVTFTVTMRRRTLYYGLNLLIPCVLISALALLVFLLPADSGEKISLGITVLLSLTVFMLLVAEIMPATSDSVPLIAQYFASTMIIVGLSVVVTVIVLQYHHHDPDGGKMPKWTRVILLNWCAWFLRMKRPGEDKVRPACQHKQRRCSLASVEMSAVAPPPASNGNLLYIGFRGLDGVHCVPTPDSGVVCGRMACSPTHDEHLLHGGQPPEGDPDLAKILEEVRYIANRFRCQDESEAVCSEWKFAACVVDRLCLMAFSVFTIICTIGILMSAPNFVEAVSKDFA
T4 sequence (P32297 32-505): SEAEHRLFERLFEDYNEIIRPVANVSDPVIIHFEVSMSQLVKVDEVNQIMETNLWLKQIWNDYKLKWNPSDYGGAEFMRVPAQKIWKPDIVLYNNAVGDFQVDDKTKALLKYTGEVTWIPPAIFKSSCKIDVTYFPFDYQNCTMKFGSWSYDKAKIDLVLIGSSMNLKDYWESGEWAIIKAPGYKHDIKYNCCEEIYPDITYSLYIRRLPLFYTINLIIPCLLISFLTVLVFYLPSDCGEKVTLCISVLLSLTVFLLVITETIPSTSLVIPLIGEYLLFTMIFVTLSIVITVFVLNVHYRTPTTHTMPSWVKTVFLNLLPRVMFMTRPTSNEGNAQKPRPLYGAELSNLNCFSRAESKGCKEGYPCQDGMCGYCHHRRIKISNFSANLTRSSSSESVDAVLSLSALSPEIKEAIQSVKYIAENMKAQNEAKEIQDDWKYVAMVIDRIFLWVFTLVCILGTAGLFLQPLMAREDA
T4 sequence (P30532 23-468 partner): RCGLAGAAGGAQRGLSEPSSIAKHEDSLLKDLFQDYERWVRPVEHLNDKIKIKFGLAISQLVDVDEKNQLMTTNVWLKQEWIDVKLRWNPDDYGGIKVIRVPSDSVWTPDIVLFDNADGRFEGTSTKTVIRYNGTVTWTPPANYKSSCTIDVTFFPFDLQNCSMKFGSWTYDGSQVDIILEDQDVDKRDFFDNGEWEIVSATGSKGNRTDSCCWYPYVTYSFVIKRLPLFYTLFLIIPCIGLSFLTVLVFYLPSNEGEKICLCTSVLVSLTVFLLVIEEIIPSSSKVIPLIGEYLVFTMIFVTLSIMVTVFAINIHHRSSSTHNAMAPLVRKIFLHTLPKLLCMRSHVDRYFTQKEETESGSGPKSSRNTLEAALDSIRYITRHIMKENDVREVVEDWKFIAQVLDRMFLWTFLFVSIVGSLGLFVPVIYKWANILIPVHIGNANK
T4 sequence (P30926 22-498, further chain): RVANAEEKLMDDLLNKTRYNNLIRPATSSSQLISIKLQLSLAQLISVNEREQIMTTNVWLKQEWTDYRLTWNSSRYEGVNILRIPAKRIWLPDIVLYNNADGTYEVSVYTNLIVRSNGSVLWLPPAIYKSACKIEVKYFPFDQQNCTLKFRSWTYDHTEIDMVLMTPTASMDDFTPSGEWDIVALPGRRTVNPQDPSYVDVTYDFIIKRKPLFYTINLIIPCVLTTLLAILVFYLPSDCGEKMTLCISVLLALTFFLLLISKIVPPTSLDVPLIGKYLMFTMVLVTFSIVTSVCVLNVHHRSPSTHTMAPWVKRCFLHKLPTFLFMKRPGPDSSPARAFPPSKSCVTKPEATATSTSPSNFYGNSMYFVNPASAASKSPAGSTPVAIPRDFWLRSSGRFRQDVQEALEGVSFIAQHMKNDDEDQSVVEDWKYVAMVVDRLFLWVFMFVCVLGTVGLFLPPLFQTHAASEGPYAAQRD
T2 sequence (P32297 32-505): as the sequence (P32297 32-505) above
T2 sequence (P30926 22-498): as the sequence (P30926 22-498, further chain) above
T5 sequence (P43681 29-627 limits assumed): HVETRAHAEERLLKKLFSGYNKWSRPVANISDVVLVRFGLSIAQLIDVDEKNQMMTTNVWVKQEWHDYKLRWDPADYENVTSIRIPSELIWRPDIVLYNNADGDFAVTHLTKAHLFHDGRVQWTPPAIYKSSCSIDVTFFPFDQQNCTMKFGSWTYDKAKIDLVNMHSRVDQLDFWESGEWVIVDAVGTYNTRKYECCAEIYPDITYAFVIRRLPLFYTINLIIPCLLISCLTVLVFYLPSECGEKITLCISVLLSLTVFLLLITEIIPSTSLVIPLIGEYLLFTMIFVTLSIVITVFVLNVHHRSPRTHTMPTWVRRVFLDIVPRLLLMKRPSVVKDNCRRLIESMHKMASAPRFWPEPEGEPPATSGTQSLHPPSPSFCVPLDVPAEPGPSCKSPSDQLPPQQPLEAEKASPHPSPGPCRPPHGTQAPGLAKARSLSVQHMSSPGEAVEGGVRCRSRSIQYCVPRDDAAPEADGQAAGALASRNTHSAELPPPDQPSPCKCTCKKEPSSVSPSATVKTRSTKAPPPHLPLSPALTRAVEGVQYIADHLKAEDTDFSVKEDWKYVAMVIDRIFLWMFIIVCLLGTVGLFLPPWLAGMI
T5 sequence (P17787 26-502): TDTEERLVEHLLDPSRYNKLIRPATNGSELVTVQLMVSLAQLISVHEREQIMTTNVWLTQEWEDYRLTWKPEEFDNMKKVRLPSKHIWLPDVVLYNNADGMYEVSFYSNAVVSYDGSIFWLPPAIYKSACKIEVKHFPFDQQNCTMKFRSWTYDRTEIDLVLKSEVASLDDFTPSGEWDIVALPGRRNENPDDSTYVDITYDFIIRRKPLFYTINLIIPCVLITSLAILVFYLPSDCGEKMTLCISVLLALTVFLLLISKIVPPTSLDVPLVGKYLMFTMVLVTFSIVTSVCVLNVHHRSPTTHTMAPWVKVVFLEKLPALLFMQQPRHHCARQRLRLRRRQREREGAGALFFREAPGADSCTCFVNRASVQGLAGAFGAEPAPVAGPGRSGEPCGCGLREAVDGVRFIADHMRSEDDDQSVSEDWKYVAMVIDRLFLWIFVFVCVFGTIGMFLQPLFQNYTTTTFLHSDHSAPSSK
T6 sequence (P43681 29-627 limits assumed): as the sequence (P43681 29-627 limits assumed) above
T6 sequence (Q15825 26-494): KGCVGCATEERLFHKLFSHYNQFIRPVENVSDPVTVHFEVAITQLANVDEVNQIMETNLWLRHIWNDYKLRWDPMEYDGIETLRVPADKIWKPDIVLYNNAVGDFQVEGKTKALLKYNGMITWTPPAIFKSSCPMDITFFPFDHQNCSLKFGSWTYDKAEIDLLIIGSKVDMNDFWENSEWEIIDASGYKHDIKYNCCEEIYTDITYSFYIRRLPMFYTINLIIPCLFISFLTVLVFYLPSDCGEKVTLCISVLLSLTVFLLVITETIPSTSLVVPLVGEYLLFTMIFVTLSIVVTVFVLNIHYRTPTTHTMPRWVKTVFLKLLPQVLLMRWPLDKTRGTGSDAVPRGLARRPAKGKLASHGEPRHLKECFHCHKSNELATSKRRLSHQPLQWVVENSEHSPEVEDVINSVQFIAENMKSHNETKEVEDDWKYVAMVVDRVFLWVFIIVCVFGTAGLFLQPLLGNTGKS
T6 sequence (P17787 26-502): as the sequence (P17787 26-502) above
T1 sequence (P32297 32-505): as the sequence (P32297 32-505) above
T1 sequence (P17787 26-502): as the sequence (P17787 26-502) above
T7 sequence (Q15825 26-494): as the sequence (Q15825 26-494) above
T7 sequence (P17787 26-502): as the sequence (P17787 26-502) above

C(=C\[C@H]1CCNC1)/c1cncnc1 [Compound 1, (R)-5-((E)-2-pyrrolidin-3-ylvinyl)pyrimidine]
agonist characterization at nAChR subtype alpha3beta2 [1]: partial agonist
agonist characterization at nAChR subtype alpha3beta4 [2]: full agonist
agonist characterization at nAChR subtype alpha7 [3]: weak partial agonist
agonist characterization at nAChR subtype alpha3alpha5beta4 [4]: full agonist
agonist characterization at nAChR subtype alpha4beta2 [5]: full agonist
agonist characterization at nAChR subtype alpha4alpha6beta2 [6]: full agonist

O=C(O)C(O)C(O)C(=O)O.c1cnc2cc3c(cc2n1)C1CNCC3C1 [Varenicline, varenicline]
agonist characterization at nAChR subtype alpha6beta2 [7]: partial agonist
increase of hNGF concentration in the Schirmer strip over the levels measured at the 7 and 14 day collections [8]: up to 3 fold
effect of nasal spray on tear hNGFβ protein concentration [9]: increased tear hNGFβ protein concentration
agonist characterization at nAChR subtype alpha3beta4 [2]: partial agonist
agonist characterization at nAChR subtype alpha7 [3]: full agonist
agonist characterization at nAChR subtype alpha3alpha5beta4 [4]: partial agonist
agonist characterization at nAChR subtype alpha4beta2 [5]: partial agonist
agonist characterization at nAChR subtype alpha4alpha6beta2 [6]: partial agonist

C(=C\[C@H]1CCNC1)/c1cncnc1.O=C(O)CC(O)(CC(=O)O)C(=O)O [compound 1 citrate, (R)-5-((E)-2-pyrrolidin-3-ylvinyl)pyrimidine mono-citrate]
percent of the maximal ACh-evoked current ([3]; 300 micromolar concentration, subtype alpha7): 25%

Tβ4: 43-amino acid peptide, SEQ ID NO: 26; tested as 0.1% Tβ4 ophthalmic formulation (SDKPDMAEIEKFDKSKLKKTETQEKNPLPSKETIEQEKQAGES; listed as Homo sapiens)
effect on corneal staining [10]: significant positive effects
effect on ocular discomfort [10]: significant positive effects
